How the values were obtained:
[1] = test system: ApoE4TR-5XFAD murine model of AD; assay: Subchronic two-week oral study in ApoE4TR-5XFAD mice (hippocampus biomarkers, proteomics); format: in vivo, mouse; conditions: oral 15 mg/kg BID, two weeks, vs vehicle
Procedure: Brain tissue was homogenized and diluted to a protein concentration of 50 ng/mL. The Mouse Clusterin ELISA Kit (Cat#ab199079, Abcam) was performed according to the manufacturer’s protocol.
(§1) Additional assays: The Aβ1-42 ELISA assay was performed on hippocampus brain homogenate according to the manufacturer’s protocol (Fisher KHB3441). Humanin in cell culture lysate was quantify by ELISA assay, according to the manufacturer’s protocol (MyBioSourc Cat# MBS7607247). SirT1 in cell culture lysate was quantify using AlphaLISA. Cell lysate (2 μL) was added to a 384-well proxy plate preloaded with 2 µL anti-SiRT1 antibody mixture (ABCAM catalog AB110304, biotinylated (10 nM) and ABCAM catalog AB104833, acceptor bead conjugated (50 µg/mL, Cat#6772001, Perkin Elmer)) was added and incubated at room temperature for 1 hour. AlphaScreen Streptavidin Donor beads (2 µL, Cat#6760002S, Perkin Elmer) were added, incubated for an additional 30 min in the dark, and the plate was read in an Envision plate reader.
All procedures were performed in accordance with protocols approved by the UCLA Institutional Animal Care and Use Committee (IACUC) and guidelines of the NIH. Mouse strains used were C57BL/6 J (Black 6, Jackson Laboratory; JAX stock #000564). All non-AD mice were 4 to 5 mo old at the time of the experiments. […]

3xTg-AD mice = assay: Barnes maze assessment of spatial learning and memory; format: in vivo, mouse; conditions: oral 15 mg/kg BID, 6 weeks; significant on Day 3 of training and in the 48-hour probe
Procedure: Male and female 3-month-old mice were administered DDL-357 via pipette feeding at a dose of 15 mg/kg BID (30 mg/kg/day). Mice were weighed before the first dose for the calculation of volume to be administered. The formulation used comprised DDL-357 as a 15 mg/mL solution dissolved in a strawberry flavored solution (propylene glycol/water/strawberry syrup, 2/1/1, v/v/v). ApoE4TR-5XFAD mice (7 mice, 3 females & 4 males-vehicle; 7 mice, 4females and 3 males – DDL357) were dosed for two weeks. 3xTg-AD mice (13 mice, 5 females & 8 males-vehicle; 13 mice, 4 females and 9 males- DDL357) were dosed for six weeks before entering Barnes Maze testing. At end of study, mice brain tissue and plasma were collected after euthanasia and perfusion. […]
Barnes Maze testing was performed as describe by Attar et al. Briefly, in a room with visual cues on the walls, mice are introduced in a circular maze containing 20 holes where 19 holes are closed during training and all 20 holes are closed during the probe trials. […] During the probe days, the target hole is closed, and spatial memory of the mouse is determined during a 90 s probe trial. […] Over the course of the training and probe trials, the software-calculated parameters included, but were not limited to, total distance traveled, speed, number of holes visited, latency to visiting the target/escape hole, percent time spent in the four quadrants of the maze.

[2] = test system: sirtuin 1 (SirT1) expression in SH-SY5Y cells; assay: SirT1 AlphaLISA in SH-SY5Y cell lysate; format: cell-based, human; conditions: 200 nM, 24 h
Procedure: as §1

[3] = test system: humanin (HN) expression in SH-SY5Y cells; assay: Humanin ELISA in SH-SY5Y cell lysate; format: cell-based, human; conditions: 200 nM, 24 h
Procedure: as §1

SMILES: Cc1sc2c(c1C)C(c1ccc(Cl)cc1)=N[C@@H](CC(=O)OC1CC1)c1nnc(C)n1-2 [DDL-357]
- Aβ1-42 in brain [1]: the difference did not reach significance
- sCLU levels in the hippocampus [1]: significant increase
- Barnes maze performance (latency to escape hole) (3xTg-AD mice): performed better overall during both the training and probe phases
- sirtuin 1 (SirT1) expression [2]: significantly increased expression
- humanin (HN) expression [3]: significantly increased expression

Source: PMC12048343, “Discovery of a small molecule secreted clusterin enhancer that improves memory in Alzheimer’s disease mice” (npj Drug Discovery, 2025)
